Experimental data reported in EP4603105A1, “PHARMACEUTICAL COMPOSITION CONTAINING CYCLIC COMPOUND HAVING SELECTIVE KRAS INHIBITORY EFFECT AGAINST HRAS AND NRAS” (CHUGAI SEIYAKU KABUSHIKI KAISHA, priority 2022, dated 2024).
pIC50: −log10 of the molar value. Where a SMILES comes first, the peptide text is derived from it. Bridges are numbered along the chain shown (N, C = ends). [ ]: non-standard residue; d: D form. The star is where a group is joined. hPhe(3,5-F2-4-CF3) = N[C@@H](CCc1cc(F)c(C(F)(F)F)c(F)c1)C(=O)O; hPhe(3-Cl-4-CF3) = N[C@@H](CCc1ccc(C(F)(F)F)c(Cl)c1)C(=O)O; NPrPhe(4-CF3) = CCCN[C@@H](Cc1ccc(C(F)(F)F)cc1)C(=O)O; NMeGly(cPent) = CN[C@H](C(=O)O)C1CCCC1; αMeCha = C[C@](N)(CC1CCCCC1)C(=O)O; Hyp = O=C(O)[C@@H]1C[C@@H](O)CN1; NMeD = CN[C@@H](CC(=O)O)C(=O)O; NMeL = CN[C@@H](CC(C)C)C(=O)O; Morpholide = C1CN(*)CCO1; Ac5c = NC1(C(=O)O)CCCC1; Ac4c = NC1(C(=O)O)CCC1; NEtG = CCNCC(=O)O; Sar = CNCC(=O)O

What was measured:
[1] = tested on: human lung cancer strain NCI-H441; assay type: cell-based
Outline: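 Step one: dispense the test compound in serial DMSO dilutions. Step three: add the reagent and measure […].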

[2] = molecular target: GDP-bound NRAS wild-type protein (Homo sapiens, UniProt P01111); assay: Binding to NRAS by surface plasmon resonance (SPR), KD and KD ratio to KRAS
Outline: (§1)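 Running buffer contained 10 µM GDP and 10 mM MgCl2 to keep RAS in the GDP state, with 4% DMSO at pH 7.4. Compounds were flowed at 100 µL/min in 75 s steps of rising concentration over captured biotin-Avi RAS at 30°C. Sensorgrams were fitted 1:1 for KD.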

HRAS wild-type protein = HRAS wild-type protein (Homo sapiens, UniProt P01112); assay: Binding to HRAS by surface plasmon resonance (SPR), KD and KD ratio to KRAS
Outline: as §1

[3] = ratio of KD for GDP-bound NRAS wild-type protein to KD for KRAS
[4] = ratio of KD for HRAS wild-type protein to KD for KRAS
[5] = ratio of the KD value with respect to GDP-bound NRAS wild-type protein to the KD value with respect to KRAS
[6] = ratio of the KD value with respect to HRAS wild-type protein to the KD value with respect to KRAS
[7] = ratio of KD value for GDP-bound NRAS wild-type protein to KD value for KRAS (SPR)
[8] = ratio of KD value for HRAS wild-type protein to KD value for KRAS (SPR)

Chain of HRAS wild-type protein (P01112 whole entry): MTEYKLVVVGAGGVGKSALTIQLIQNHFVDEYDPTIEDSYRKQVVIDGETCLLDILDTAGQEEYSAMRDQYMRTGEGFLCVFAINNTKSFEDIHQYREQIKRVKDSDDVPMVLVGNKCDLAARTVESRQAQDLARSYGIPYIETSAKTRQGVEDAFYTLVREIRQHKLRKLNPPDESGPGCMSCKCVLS
Chain of GDP-bound NRAS wild-type protein (P01111 whole entry): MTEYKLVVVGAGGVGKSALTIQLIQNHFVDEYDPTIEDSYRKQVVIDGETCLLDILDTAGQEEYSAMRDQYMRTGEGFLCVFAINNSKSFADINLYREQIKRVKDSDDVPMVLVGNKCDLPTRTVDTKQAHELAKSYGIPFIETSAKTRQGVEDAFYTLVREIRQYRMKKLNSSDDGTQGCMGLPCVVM

Row | pIC50 [1] | Structure (SMILES) | NRAS /KRAS [2, 5] | HRAS /KRAS (HRAS wild-type protein; [6]) | other results
1 | 7.18 | CCCN1C(=O)CN(C)C(=O)CNC(=O)[C@H]([C@@H](C)CC)NC(=O)[C@H](CC(C)C)N(C)C(=O)C[C@@H](C(=O)N2CCOCC2)NC(=O)[C@H](C2CCCC2)N(C)C(=O)C2(CCCC2)NC(=O)[C@@H]2C[C@@H](OCC)CN2C(=O)[C@H](CCc2ccc(C(F)(F)F)c(Cl)c2)NC(=O)CN(C)C(=O)[C@@H]1Cc1ccc(C(F)(F)F)cc1 [PP0329] ([NMeL]IG[Sar][NPrPhe(4-CF3)][Sar][hPhe(3-Cl-4-CF3)][Hyp](Et)[Ac5c][NMeGly(cPent)]D-Morpholide; lactam N-11) |  |  | NRAS /KRAS [2, 3]: B (a compound having 3 or more and less than 10 is denoted as B); HRAS /KRAS (HRAS wild-type protein; [4]): C (A compound having a KD ratio of 0.1 or more and less than 3 is denoted as C)
2 | 6.51 | CCCN1C(=O)CN(C)C(=O)CN(C)C(=O)[C@H]([C@@H](C)CC)NC(=O)[C@H](CC(C)C)N(C)C(=O)C[C@@H](C(=O)N2CCOCC2)N(C)C(=O)[C@H](C2CCCC2)N(C)C(=O)[C@](C)(CC2CCCCC2)NC(=O)[C@@H]2CCCN2C(=O)[C@H](CCc2cc(F)c(C(F)(F)F)c(F)c2)NC(=O)CN(C)C(=O)[C@@H]1Cc1ccc(C(F)(F)F)cc1 [PP0760] ([NMeL]I[Sar][Sar][NPrPhe(4-CF3)][Sar][hPhe(3,5-F2-4-CF3)]P[αMeCha][NMeGly(cPent)][NMeD]-Morpholide; lactam N-11) | B (a compound having 3 or more and less than 10 is denoted as B) | C (A compound having a KD ratio of 0.1 or more and less than 3 is denoted as C) | 
3 | 8.07 | CCCC[C@H]1C(=O)N[C@@H]([C@@H](C)CC)C(=O)N(C)CC(=O)N(C)[C@H]2C/C=C\CCN(C2=O)[C@@H](Cc2ccc(C)cc2)C(=O)N(C)CC(=O)N[C@@H](CCc2cc(F)c(C(F)(F)F)c(F)c2)C(=O)N2C[C@H](OCC)C[C@H]2C(=O)NC2(CCC2)C(=O)N(C)[C@@H](C2CCCC2)C(=O)N(C)[C@H](C(=O)N(C)C)CC(=O)N1C [PP2798] |  |  | NRAS /KRAS [2, 3]: A (a compound having 10 or more and less than 20 is denoted as A); HRAS /KRAS (HRAS wild-type protein; [4]): A (a compound having 10 or more and less than 20 is denoted as A)
4 | 6.78 | CCCN1C(=O)CN(C)C(=O)CN(CC)C(=O)[C@H]([C@@H](C)CC)NC(=O)[C@H](CC(C)C)N(C)C(=O)C[C@@H](C(=O)N2CCOCC2)NC(=O)[C@H](C2CCCC2)N(C)C(=O)C2(CCC2)NC(=O)[C@@H]2CCCN2C(=O)[C@H](CCc2ccc(C(F)(F)F)c(Cl)c2)NC(=O)CN(C)C(=O)[C@@H]1Cc1ccc(C(F)(F)F)cc1 [PP0332] ([NMeL]I[NEtG][Sar][NPrPhe(4-CF3)][Sar][hPhe(3-Cl-4-CF3)]P[Ac4c][NMeGly(cPent)]D-Morpholide; lactam N-11) |  |  | NRAS /KRAS [2, 3]: B (a compound having 3 or more and less than 10 is denoted as B); HRAS /KRAS (HRAS wild-type protein; [4]): B (a compound having 3 or more and less than 10 is denoted as B)
5 | 8.15 | CCC[C@H]1C(=O)N[C@@H]([C@@H](C)CC)C(=O)N(C)CC(=O)N(C)[C@H]2C/C=C\CCN(C2=O)[C@@H](Cc2ccc(C)cc2)C(=O)N(C)CC(=O)N[C@@H](CCc2ccc(C(F)(F)F)c(Cl)c2)C(=O)N2C[C@H](OCC)C[C@H]2C(=O)NC2(CC(C)(C)C2)C(=O)N(C)[C@@H](CC(C)(C)C)C(=O)N(C)[C@H](C(=O)N(C)C)CC(=O)N1C [PP2230] | A (a compound having 10 or more and less than 20 is denoted as A) | A (a compound having 10 or more and less than 20 is denoted as A) | 
6 | 7.69 | CCO[C@@H]1C[C@H]2C(=O)NC3(CC(C)(C)C3)C(=O)N(C)[C@@H](C3CCCC3)C(=O)N(C)[C@H](C(=O)N(C)CC)CC(=O)N(C)[C@@H](C(C)C)C(=O)N[C@@H]([C@@H](C)CC)C(=O)N(C)CC(=O)N(C)[C@H]3C/C=C\CCN(C3=O)[C@@H](Cc3ccc(C(F)(F)F)cc3)C(=O)N(C)CC(=O)N[C@@H](CCc3ccc(C(F)(F)F)c(OC)c3)C(=O)N2C1 [PP1977] | AA (a compound having 20 or more is denoted as AA) | A (a compound having 10 or more and less than 20 is denoted as A) | 
7 | 8.06 | CCCN(C)C(=O)[C@@H]1CC(=O)N(C)[C@@H](CC2CC2)C(=O)N[C@@H]([C@@H](C)CC)C(=O)N(C)CC(=O)N(C)[C@H]2C/C=C\CCN(C2=O)[C@@H](Cc2ccc(C(F)(F)F)cc2)C(=O)N(C)CC(=O)N[C@@H](CCc2cc(F)c(C(F)(F)F)c(F)c2)C(=O)N2C[C@H](OCC)C[C@H]2C(=O)NC2(CCC2)C(=O)N(C)[C@@H](C2CCCC2)C(=O)N1C [PP1388] |  |  | NRAS /KRAS ([2]; ratio of KD with respect to GDP-bound NRAS wild-type protein to KD with respect to KRAS): A (a compound having 10 or more and less than 20 is denoted as A); HRAS /KRAS (HRAS wild-type protein; ratio of KD with respect to HRAS wild-type protein to KD with respect to KRAS): B (a compound having 3 or more and less than 10 is denoted as B)
8 | 7.71 | CCO[C@@H]1C[C@H]2C(=O)NC3(CC(C)(C)C3)C(=O)N(C)[C@@H](C(CC)CC)C(=O)N(C)[C@H](C(=O)N3CCCC3)CC(=O)N(C)[C@@H](CC)C(=O)N[C@@H]([C@@H](C)CC)C(=O)N(C)CC(=O)N(C)[C@H]3C/C=C\CCN(C3=O)[C@@H](Cc3ccc(C)cc3)C(=O)N(C)CC(=O)N[C@@H](CCc3ccc(C(F)(F)F)c(OC)c3)C(=O)N2C1 [PP2171] | A (a compound having 10 or more and less than 20 is denoted as A) | A (a compound having 10 or more and less than 20 is denoted as A) | 
9 | 7.92 | CCO[C@@H]1C[C@H]2C(=O)NC3(CCC3)C(=O)N(C)[C@@H](C3CCCC3)C(=O)N(CCC3CCC3)[C@H](C(=O)N(C)C)CC(=O)N(C)[C@@H](CC)C(=O)N[C@@H]([C@@H](C)CC)C(=O)N(C)CC(=O)N(C)[C@H]3CCCCN(C3=O)[C@@H](Cc3ccc(C(F)(F)F)cc3)C(=O)N(C)CC(=O)N[C@@H](CCc3cc(F)c(C(F)(F)F)c(F)c3)C(=O)N2C1 [PP0645] | B (a compound having 3 or more and less than 10 is denoted as B) | B (a compound having 3 or more and less than 10 is denoted as B) | 
10 | 8.42 | CC[C@H](C)[C@@H]1NC(=O)[C@H](CC2CCC2)N(C)C(=O)C[C@@H](C(=O)N(C)C)N(C)C(=O)[C@H](C2CCCC2)N(C)C(=O)C2(CC(C)(C)C2)NC(=O)[C@@H]2CC(F)(F)CN2C(=O)[C@H](CCc2cc(F)c(C(F)(F)F)c(F)c2)NC(=O)CN(C)C(=O)[C@H](Cc2ccc(C(F)(F)F)cc2)N2CC/C=C\C[C@@H](C2=O)N(C)C(=O)CN(C)C1=O [PP1716] |  |  | NRAS /KRAS [2, 7]: AA (a compound having 20 or more is denoted as AA); HRAS /KRAS (HRAS wild-type protein; [8]): A (a compound having 10 or more and less than 20 is denoted as A)
11 | 8.51 | CC[C@H](C)[C@@H]1NC(=O)[C@H](CC(C)C)N(C)C(=O)C[C@@H](C(=O)N(C)C)N(C)C(=O)[C@H](C2CCCC2)N(C)C(=O)C2(CCC2)NC(=O)[C@@H]2CCCN2C(=O)[C@H](CCc2cc(F)c(C(F)(F)F)c(F)c2)NC(=O)CN(C)C(=O)[C@H](Cc2ccc(C(F)(F)F)cc2)N2CCCC[C@@H](C2=O)N(C)C(=O)CN(C)C1=O [PP0574] | C (A compound having a KD ratio of 0.1 or more and less than 3 is denoted as C) | B (a compound having 3 or more and less than 10 is denoted as B) | 
12 | 8.08 | CCO[C@@H]1C[C@H]2C(=O)NC3(CC(C)(C)C3)C(=O)N(C)[C@@H](C3CCCC3)C(=O)N(C)[C@H](C(=O)N(C)C)CC(=O)N(C)[C@@H](CC3CCC3)C(=O)N[C@@H]([C@@H](C)CC)C(=O)N(C)CC(=O)N(C)[C@H]3C/C=C\CCN(C3=O)[C@@H](Cc3ccc(C(F)(F)F)cc3)C(=O)N(C)CC(=O)N[C@@H](CCc3cc(F)c(Cl)c(F)c3)C(=O)N2C1 [PP1762] |  |  | NRAS /KRAS [2, 7]: A (a compound having 10 or more and less than 20 is denoted as A); HRAS /KRAS (HRAS wild-type protein; [8]): A (a compound having 10 or more and less than 20 is denoted as A)
